The assay concerns the target Escherichia coli DNA gyrase A/B tetramer (Escherichia coli, UniProt P0AES4+P0AES6). In words: DNA gyrase supercoiling activity fluorescence polarisation assay. Format: biochemical. The method in brief:
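Gyrase supercoiling reactions quenched with 40 nM 5′-BODIPY-FL oligodeoxynucleotide triplex probe in pH 3.5 NaCl/sodium acetate buffer; fluorescence anisotropy read after 60 min (485/535 nm).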

Where two headings read alike, the source gives them in different places.

Escherichia coli DNA gyrase A/B tetramer, sequence (P0AES4 whole entry, one chain of several): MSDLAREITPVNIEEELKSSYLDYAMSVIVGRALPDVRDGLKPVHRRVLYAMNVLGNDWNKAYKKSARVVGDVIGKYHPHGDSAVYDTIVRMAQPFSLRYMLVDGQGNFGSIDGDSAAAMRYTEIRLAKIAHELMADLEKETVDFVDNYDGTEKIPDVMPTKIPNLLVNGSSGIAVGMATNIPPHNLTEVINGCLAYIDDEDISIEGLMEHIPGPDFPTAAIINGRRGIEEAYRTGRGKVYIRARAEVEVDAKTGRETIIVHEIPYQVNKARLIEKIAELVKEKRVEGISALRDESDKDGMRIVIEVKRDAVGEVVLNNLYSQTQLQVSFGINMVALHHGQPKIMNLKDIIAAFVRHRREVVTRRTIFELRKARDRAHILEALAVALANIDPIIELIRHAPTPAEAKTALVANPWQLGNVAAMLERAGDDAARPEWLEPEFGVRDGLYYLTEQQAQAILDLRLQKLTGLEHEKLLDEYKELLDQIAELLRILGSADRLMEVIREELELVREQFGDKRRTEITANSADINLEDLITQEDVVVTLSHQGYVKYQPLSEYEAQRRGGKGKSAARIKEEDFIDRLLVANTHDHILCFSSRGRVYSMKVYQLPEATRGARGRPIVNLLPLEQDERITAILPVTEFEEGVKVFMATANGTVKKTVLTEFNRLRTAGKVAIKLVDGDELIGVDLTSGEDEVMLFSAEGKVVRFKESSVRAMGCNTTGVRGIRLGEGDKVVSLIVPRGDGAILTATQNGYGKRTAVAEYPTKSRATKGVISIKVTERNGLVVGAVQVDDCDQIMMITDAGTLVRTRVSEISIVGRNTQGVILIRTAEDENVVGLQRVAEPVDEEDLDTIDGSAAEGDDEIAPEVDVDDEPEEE

Consider `C[C@@H]1CN2c3ncc(-c4ccnnc4)cc3CC3(C(=O)NC(=O)NC3=O)[C@H]2[C@H](C)O1` (relative stereo) [Example 94, (6aS,7S,9R)-rel-7,9-Dimethyl-3-(pyridazin-4-yl)-6a,7,9,10-tetrahydro-2′H,5H-spiro[1,4-oxazino[4,3-a][1,8]naphthyridine-6,5′-pyrimidine]-2′,4′,6′(1′H, 3H)-trione], for which, for the setting “E. coli DNA gyrase supercoiling, asterisk: no IC50 obtained at or below the indicated concentration, read-out: IC50”, the IC50 amounted to 7 µM. As for `C[C@@H]1CN2c3ccc(-c4ccnnc4)nc3CC3(C(=O)NC(=O)NC3=O)[C@H]2[C@H](C)O1` (relative stereo) [Example 95, (2R,4S,4aS)-rel-2,4-Dimethyl-8-(pyridazin-4-yl)-1,2,4,4a-tetrahydro-2′H,6H-spiro[1,4-oxazino[4,3-a][1,5]naphthyridine-5,5′-pyrimidine]-2′,4′,6′(1′H,3′H)-trione], it took 2 µM to reach half-maximal inhibition (IC50). Same read-out and setting: the figure for `C[C@@H]1CN2c3cnc(-c4ccnnc4)cc3CC3(C(=O)NC(=O)NC3=O)[C@H]2[C@H](C)O1` (relative stereo) [Example 96, (6aS,7S,9R)-rel-7,9-Dimethyl-3-(pyridazin-4-yl)-6a,7,9,10-tetrahydro-2′H,5H-spiro[1,4-oxazino[4,3-a][1,7]naphthyridine-6,5′-pyrimidine]-2′,4′,6′(1′H,3′H)-trione] is 3 µM; for `C[C@@H]1CN2c3ncc(-c4ncco4)cc3CC3(C(=O)NC(=O)NC3=O)[C@H]2[C@H](C)O1` (relative stereo) [Example 97, (6aS,7S,9R)-rel-7,9-Dimethyl-3-(1,3-oxazol-2-yl)-6a,7,9,10-tetrahydro-2′H,5H-spiro[1,4-oxazino[4,3-a][1,8]naphthyridine-6,5′-pyrimidine]-2′,4′,6′(1′H,3′H)-trione] it is 44 µM; for `C[C@@H]1CN2c3ccc(-c4ncco4)nc3CC3(C(=O)NC(=O)NC3=O)[C@H]2[C@H](C)O1` (relative stereo) [Example 98, (2R,4S,4aS)-rel-2,4-Dimethyl-8-(1,3-oxazol-2-yl)-1,2,4,4a-tetrahydro-2′H,6H-spiro[1,4-oxazino[4,3-a][1,5]naphthyridine-5,5′-pyrimidine]-2′,4′,6′(1′H,3′H)-trione] it is 51 µM.

Consider `C[C@@H]1CN2c3cnc(-c4ncco4)cc3CC3(C(=O)NC(=O)NC3=O)[C@H]2[C@H](C)O1` (relative stereo) [Example 99, (6aS,7S,9R)-rel-7,9-Dimethyl-3-(1,3-oxazol-2-yl)-6a,7,9,10-tetrahydro-2′H,5H-spiro[1,4-oxazino[4,3-a][1,7]naphthyridine-6,5′-pyrimidine]-2′,4′,6′(1′H,3′H)-trione], for which the half-inhibitory concentration (IC50) stood at 44 µM. Regarding `C[C@@H]1CN2c3ncc(-c4cscn4)cc3CC3(C(=O)NC(=O)NC3=O)[C@H]2[C@H](C)O1` (relative stereo) [Example 100, (6aS,7S,9R)-rel-7,9-Dimethyl-3-(1,3-thiazol-4-yl)-6a,7,9,10-tetrahydro-2′H,5H-spiro[1,4-oxazino[4,3-a][1,8]naphthyridine-6,5′-pyrimidine]-2′,4′,6′(1′H,3′H)-trione], the IC50 amounted to 7 µM. Consider `C[C@@H]1CN2c3ccc(-c4cscn4)nc3CC3(C(=O)NC(=O)NC3=O)[C@H]2[C@H](C)O1` (relative stereo) [Example 101, (2R,4S,4aS)-rel-2,4-Dimethyl-8-(1,3-thiazol-4-yl)-1,2,4,4a-tetrahydro-2′H,6H-spiro[1,4-oxazino[4,3-a][1,5]naphthyridine-5,5′-pyrimidine]-2′,4′,6′(1′H,3′H)-trione], for which the IC50 worked out at 2 µM.

With `C[C@@H]1CN2c3cnc(-c4cscn4)cc3CC3(C(=O)NC(=O)NC3=O)[C@H]2[C@H](C)O1` (relative stereo) [Example 102, (6aS,7S,9R)-rel-7,9-Dimethyl-3-(1,3-thiazol-4-yl)-6a,7,9,10-tetrahydro-2′H,5H-spiro[1,4-oxazino[4,3-a][1,7]naphthyridine-6,5′-pyrimidine]-2′,4′,6′(1′H,3′H)-trione], it took 16 µM to reach half-maximal inhibition (IC50). Still for that read-out and setting: the figure for `COc1cncc(-c2cnc3c(c2)CC2(C(=O)NC(=O)NC2=O)[C@H]2[C@H](C)O[C@H](C)CN32)n1` (relative stereo) [Example 103, (6aS,7S,9R)-rel-3-(6-Methoxypyrazin-2-yl)-7,9-dimethyl-6a,7,9,10-tetrahydro-2′H,5H-spiro[1,4-oxazino[4,3-a][1,8]naphthyridine-6,5′-pyrimidine]-2′,4′,6′(1′H,3′H)-trione] is 4 µM; for `COc1cncc(-c2ccc3c(n2)CC2(C(=O)NC(=O)NC2=O)[C@H]2[C@H](C)O[C@H](C)CN32)n1` (relative stereo) [Example 104, (2R,4S,4aS)-rel-8-(6-Methoxypyrazin-2-yl)-2,4-dimethyl-1,2,4,4a-tetrahydro-2′H,6H-spiro[1,4-oxazino[4,3-a][1,5]naphthyridine-5,5′-pyrimidine]-2′,4′,6′(1′H,3′H)-trione] it is 22 µM; for `COc1nc(-c2cnc3c(c2)CC2(C(=O)NC(=O)NC2=O)[C@H]2[C@H](C)O[C@H](C)CN32)cs1` (relative stereo) [Example 107, (6aS,7S,9R)-rel-3-(2-Methoxy-1,3-thiazol-4-yl)-7,9-dimethyl-6a,7,9,10-tetrahydro-2′H,5H-spiro[1,4-oxazino[4,3-a][1,8]naphthyridine-6,5′-pyrimidine]-2′,4′,6′(1′H,3′H)-trione] it is 6 µM.

As for `Cc1nc(C)c(-c2ccc3c(n2)CC2(C(=O)NC(=O)NC2=O)[C@H]2[C@H](C)O[C@H](C)CN32)s1` (relative stereo) [Example 109, (2R,4S,4aS)-rel-8-(2,4-Dimethyl-1,3-thiazol-5-yl)-2,4-dimethyl-1,2,4,4a-tetrahydro-2′H,6H-spiro[1,4-oxazino[4,3-a][1,5]naphthyridine-5,5′-pyrimidine]-2′,4′,6′(1′H,3′H)-trione], the IC50 worked out at 14 µM.

`C[C@@H]1CN2c3ncc(-c4ccc(N5CCOCC5)nc4)cc3CC3(C(=O)NC(=O)NC3=O)[C@H]2[C@H](C)O1` (relative stereo) [Example 111, (6aS,7S,9R)-rel-7,9-Dimethyl-3-[6-(morpholin-4-yl)pyridin-3-yl]-6a,7,9,10-tetrahydro-2′H,5H-spiro[1,4-oxazino[4,3-a][1,8]naphthyridine-6,5′-pyrimidine]-2′,4′,6′(1′H,3′H)-trione] came in with an IC50 of 23 µM. The same measure, in the same setting: under `C[C@@H]1CN2c3cnc(-c4ccc(N5CCOCC5)nc4)cc3CC3(C(=O)NC(=O)NC3=O)[C@H]2[C@H](C)O1` (relative stereo) [Example 112, (6aS,7S,9R)-rel-7,9-Dimethyl-3-[6-(morpholin-4-yl)pyridin-3-yl]-6a,7,9,10-tetrahydro-2′H,5H-spiro[1,4-oxazino[4,3-a][1,7]naphthyridine-6,5′-pyrimidine]-2′,4′,6′(1′H,3′H)-trione] stands over 83 µM; under `C[C@@H]1CN2c3ncc(C#N)cc3CC3(C(=O)NC(=O)NC3=O)[C@H]2[C@H](C)O1` (relative stereo) [Example 113, (6aS,7S,9R)-rel-7,9-Dimethyl-2′,4′,6′-trioxo-1′,3′,4′,6′,6a,7,9,10-octahydro-2′H,5H-spiro[1,4-oxazino[4,3-a][1,8]naphthyridine-6,5′-pyrimidine]-3-carbonitrile], 22 µM; under `C[C@@H]1CN2c3c(nc(Br)c(F)c3Cl)CC3(C(=O)NC(=O)NC3=O)[C@H]2[C@H](C)O1` (relative stereo) [Example 114, (2R,4S,4aS)-rel-8-Bromo-10-chloro-9-fluoro-2,4-dimethyl-2,4,4a,6-tetrahydro-1H,1′H-spiro[[1,4]oxazino[4,3-a][1,5]naphthyridine-5,5′-pyrimidine]-2′,4′,6′(3′H)-trione], 2 µM.

For `C[C@@H]1CN2c3cc(Cl)ncc3CC3(C(=O)NC(=O)NC3=O)[C@H]2[C@H](C)O1` (relative stereo) [Example 115, (2R,4S,4aS)-rel-9-chloro-2,4-dimethyl-1,2,4,4a-tetrahydro-2′H,6H-spiro[1,4-oxazino[4,3-a][1,6]naphthyridine-5,5′-pyrimidine]-2′,4′,6′(1′H,3′H)-trione], the IC50 is over 20 µM.

`C[C@@H]1CN2c3cnc(-c4cccs4)cc3CC3(C(=O)NC(=O)NC3=O)[C@H]2[C@H](C)O1` (relative stereo) [Example 116, (6aS,7S,9R)-rel-7,9-dimethyl-3-(thiophen-2-yl)-6a,7,9,10-tetrahydro-1′H,5H-spiro[[1,4]oxazino[4,3-a][1,7]naphthyridine-6,5′-pyrimidine]-2′,4′,6′(3′H)-trione] registered a concentration for half-maximal inhibition (IC50) of 33 µM. As for `C[C@@H]1CN2c3cnc(-c4ccn[nH]4)cc3CC3(C(=O)NC(=O)NC3=O)[C@H]2[C@H](C)O1` (relative stereo) [Example 118, (6aS,7S,9R)-rel-7,9-Dimethyl-3-(1H-pyrazol-5-yl)-6a,7,9,10-tetrahydro-2′H,5H-spiro[1,4-oxazino[4,3-a][1,7]naphthyridine-6,5′-pyrimidine]-2′,4′,6′(1′H,3′H)-trione], the IC50 worked out at 19 µM.

`C[C@H]1CN2c3ncc(-c4nnn(C)n4)cc3CC3(C(=O)NC(=O)NC3=O)[C@@H]2[C@@H](C)O1` (relative stereo) [Example 120(a), (6aR,7R,9S)-rel-7,9-Dimethyl-3-(2-methyl-2H-tetrazol-5-yl)-6a,7,9,10-tetrahydro-2′H,5H-spiro[1,4-oxazino[4,3-a][1,8]naphthyridine-6,5′-pyrimidine]-2′,4′,6′(1′H,3′H)-trione]: the half-inhibitory concentration (IC50) was determined as 12 µM. In the case of `C[C@H]1CN2c3ncc(-c4nnnn4C)cc3CC3(C(=O)NC(=O)NC3=O)[C@@H]2[C@@H](C)O1` (relative stereo) [Example 120(b), (6aR,7R,9S)-rel-7,9-Dimethyl-3-(1-methyl-1H-tetrazol-5-yl)-6a,7,9,10-tetrahydro-2′H,5H-spiro[1,4-oxazino[4,3-a][1,8]naphthyridine-6,5′-pyrimidine]-2′,4′,6′(1′H,3′H)-trione], the IC50 was 14 µM. Same read-out and setting: under `C[C@@H]1CN2c3ncc(C(=N)NO)cc3CC3(C(=O)NC(=O)NC3=O)[C@H]2[C@H](C)O1` (relative stereo) [Example 121, (6aS,7S,9R)-rel-N-Hydroxy-7,9-dimethyl-2′,4′,6′-trioxo-1′,3′,4′,6′,6a,7,9,10-octahydro-2′H,5H-spiro[1,4-oxazino[4,3-a][1,8]naphthyridine-6,5′-pyrimidine]-3-carboximidamide] stands 9 µM.

These data come from patent US20110178064A1, “SPIRO CONDENSED […] DERIVATIVES FOR USE AS ANTIBACTERIAL” (A[…]&D, priority 2007, published 2011).
